One assay deals with Procathepsin L (Homo sapiens, UniProt P07711). Kind of assay: Inhibition of Cathepsin L from human kidney. It is filed as tissue-based.
For another assay, the target named is T1, Interstitial collagenase (Homo sapiens, UniProt P03956).
T1 sequence (P03956 whole entry): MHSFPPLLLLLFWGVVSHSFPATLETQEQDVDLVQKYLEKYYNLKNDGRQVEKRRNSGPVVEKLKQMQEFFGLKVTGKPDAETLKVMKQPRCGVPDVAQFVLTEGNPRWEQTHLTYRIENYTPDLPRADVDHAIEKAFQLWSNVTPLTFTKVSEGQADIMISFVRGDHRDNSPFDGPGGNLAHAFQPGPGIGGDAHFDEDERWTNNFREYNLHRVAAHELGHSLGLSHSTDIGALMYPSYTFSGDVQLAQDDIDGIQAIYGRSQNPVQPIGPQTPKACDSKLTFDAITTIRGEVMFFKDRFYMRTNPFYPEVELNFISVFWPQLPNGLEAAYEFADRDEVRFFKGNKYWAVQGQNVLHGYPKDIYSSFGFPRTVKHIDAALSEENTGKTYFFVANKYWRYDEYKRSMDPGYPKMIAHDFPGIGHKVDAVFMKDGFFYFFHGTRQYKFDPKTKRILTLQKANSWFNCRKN
The experiment in a line: Inhibition of Matrix metalloprotease-1.

Sequence of Procathepsin L (P07711 whole entry): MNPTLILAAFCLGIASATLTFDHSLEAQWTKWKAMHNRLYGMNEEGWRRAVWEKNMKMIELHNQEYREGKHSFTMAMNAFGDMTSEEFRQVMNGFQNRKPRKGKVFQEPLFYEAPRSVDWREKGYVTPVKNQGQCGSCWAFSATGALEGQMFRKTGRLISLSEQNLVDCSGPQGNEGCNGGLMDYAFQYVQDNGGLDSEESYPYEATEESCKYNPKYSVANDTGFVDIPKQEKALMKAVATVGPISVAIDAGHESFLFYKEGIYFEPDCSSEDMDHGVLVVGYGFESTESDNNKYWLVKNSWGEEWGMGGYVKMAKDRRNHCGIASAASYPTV

What is called IC50 is the concentration at which inhibition is half-maximal. Low readings indicate greater potency, high ones weaker potency. `CCOC(OCC)[C@H](C)NC(=O)[C@H](Cc1ccccc1)NC(=O)[C@@H](CC(=O)NO)CC(C)C`: the concentration for half-maximal inhibition (IC50) was more than 1000 nM against Procathepsin L and 29 nM against Interstitial collagenase.

Consider `CC(C)C[C@H](CC(=O)NO)C(=O)N[C@@H](Cc1ccccc1)C(=O)N[C@@H](C)C=O`, for which the results for the IC50 at Procathepsin L and against Interstitial collagenase were 15 nM and 25 nM, respectively.

Regarding `CC(C)C[C@H](CC(=O)NO)C(=O)N[C@@H](Cc1ccccc1)C(=O)NCC=O`, the IC50 is 4300 nM against Procathepsin L and 12 nM against Interstitial collagenase.

As for `C[C@@H](C=O)NC(=O)[C@H](Cc1ccccc1)NC(=O)OCc1ccccc1`, the results for the IC50 against Procathepsin L and against Interstitial collagenase were 3 nM and more than 1000 nM, respectively.

As for `CC(C)C[C@H](CC(=O)NO)C(=O)N[C@@H](Cc1ccccc1)C(=O)N[C@H](C=O)CC(C)C`, the IC50 against Procathepsin L was 7 nM; against Interstitial collagenase, 1400 nM.

Take `CC(C)C[C@H](CC(=O)NO)C(=O)N[C@@H](CC(C)C)C(=O)N[C@@H](C)C=O`: the IC50 on Procathepsin L stood at 23 nM; against Interstitial collagenase, 47 nM.

The compound `CNC(=O)[C@H](Cc1ccccc1)NC(=O)[C@@H](CC(=O)NO)CC(C)C` registered a 50% inhibitory concentration (IC50) at Procathepsin L of more than 1000 nM.

The values are drawn from ChEMBL document CHEMBL1135034, “Design and synthesis of dual inhibitors for matrix metalloproteinase and cathepsin” (Bioorg Med Chem Lett, 2002).
